Results from ChEMBL document CHEMBL5532634, “Oxazolidinone: A promising scaffold for the development of antibacterial drugs” (Eur J Med Chem, 2023).
In brackets after ≈: the same amount, converted by molar mass. Values belong to the compound of their own block, whether it stands above or below them.

Assays:
Format in all cases: functional
Staphylococcus aureus [1] = assay: Antibacterial activity against Staphylococcus aureus ATCC 29213 assessed as reduction in bacterial growth incubated for 24 hrs by Mueller Hinton Agar based plate analysis
Staphylococcus aureus [2] = assay: Antibacterial activity against Staphylococcus aureus ATCC 29213 assessed as bacterial growth inhibition incubated for 24 hrs by broth dilution method
Staphylococcus aureus [3] = assay: Antibacterial activity against methicillin-resistant Staphylococcus aureus ATCC 3300 assessed as reduction in microbial growth measured after 24 hrs by broth microdilution analysis
Staphylococcus aureus [4] = assay: Antibacterial activity against Linezolid-resistant Staphylococcus aureus assessed as reduction in bacterial growth
Enterococcus faecium = assay: Antibacterial activity against Linezolid-resistant Enterococcus faecium assessed as reduction in bacterial growth
Haemophilus influenzae = assay: Antibacterial activity against Haemophilus influenzae UC30063 assessed as reduction in bacterial growth by broth microdilution method
Moraxella catarrhalis = assay: Antibacterial activity against Moraxella catarrhalis UC30610 assessed as reduction in bacterial growth by broth microdilution method
[5] = tested on: Staphylococcus epidermidis; assay: Antibacterial activity methicillin-resistant Staphylococcus epidermidis UC12084 assessed as reduction in bacterial growth by broth microdilution method
Staphylococcus aureus [6] = assay: In vivo Antibacterial activity against Methicillin-resistant Staphylococcus aureus in PO dosed mouse infected model assessed as reduction in bacterial load
Enterococcus faecalis = assay: Antibacterial activity against Enterococcus faecalis UC9217 assessed as reduction in bacterial growth by broth microdilution method
Staphylococcus aureus [7] = assay: Antibacterial activity against Staphylococcus aureus ATCC 29213 assessed as reduction in microbial growth measured after 24 hrs by broth microdilution analysis
Staphylococcus aureus [8] = assay: Antibacterial activity against Methicillin-resistant Staphylococcus aureus assessed as reduction in microbial growth by Muller Hinton broth based dilution assay
Staphylococcus aureus [9] = assay: Antibacterial activity against Staphylococcus aureus ATCC 29213 assessed as reduction in bacterial growth incubated for 24 hrs by serial dilution method

SMILES: CC(=O)NC[C@H]1CN(c2ccc3c(c2)OC[C@@H]2CCCN32)C(=O)O1
- MIC (Staphylococcus aureus [1]): 4 µg/mL (≈ 12.1 µM)

SMILES: CC/C(S)=N\C[C@H]1CN(c2cc(F)c3c(c2)OC[C@@H]2CCCN32)C(=O)O1
- MIC (Staphylococcus aureus [2]): 0.5 µg/mL (≈ 1.32 µM)

SMILES: CO/C(S)=N\C[C@H]1CN(c2cc(F)c3c(c2)OC[C@@H]2CCCN32)C(=O)O1
- MIC (Staphylococcus aureus [2]): 0.5 µg/mL (≈ 1.31 µM)

SMILES: N=C(S)NC[C@H]1CN(c2cc(F)c3c(c2)OC[C@@H]2CCCN32)C(=O)O1
- MIC (Staphylococcus aureus [2]): 0.5 µg/mL (≈ 1.36 µM)

SMILES: CC(=O)NC[C@H]1CN(c2ccc(C3=CCOCC3)c(F)c2)C(=O)O1
- MIC (Staphylococcus aureus [3]): 0.13 µg/mL

SMILES: O=C1O[C@@H](COc2ccccn2)CN1c1ccc(C2=CCOCC2)c(F)c1
- MIC (Staphylococcus aureus [3]): 1 µg/mL

SMILES: CC(=O)NC[C@H]1CN(c2ccc(N3CCN(c4c(F)cc5c(=O)c(C(=O)O)cn6c5c4OC[C@@H]6C)CC3)c(F)c2)C(=O)O1
- MIC (Staphylococcus aureus [4]): 2 µg/mL (≈ 3.35 µM)
- MIC (Enterococcus faecium): 0.5 µg/mL (≈ 0.837 µM)

SMILES: CC(=O)NC[C@H]1CN(c2ccc(N3CCN(c4c(F)cc5c(=O)c(C(=O)O)cn6c5c4OCC6C)CC3)c(F)c2)C(=O)O1 (some centres undefined)
- MIC (Staphylococcus aureus [4]): 2 µg/mL (≈ 3.35 µM)
- MIC (Enterococcus faecium): 0.5 µg/mL (≈ 0.837 µM)

SMILES: CC(=O)NC[C@H]1CN(c2ccc(-n3ccc(C#N)c3)c(F)c2)C(=O)O1
- MIC (Haemophilus influenzae): 2 µg/mL (≈ 5.84 µM)
- MIC (Moraxella catarrhalis): 2 µg/mL (≈ 5.84 µM)
- MIC [5]: 0.125 µg/mL (≈ 0.365 µM)
- ED50 (Staphylococcus aureus [6]): 1.9 mg/kg
- MIC (Enterococcus faecalis): 0.125 µg/mL (≈ 0.365 µM)

SMILES: CC(=O)NC[C@H]1CN(c2ccc(-n3cc(C#N)nn3)c(F)c2)C(=O)O1
- MIC (Haemophilus influenzae): 2 µg/mL (≈ 5.81 µM)
- MIC (Moraxella catarrhalis): 2 µg/mL (≈ 5.81 µM)
- MIC [5]: 0.125 µg/mL (≈ 0.363 µM)
- ED50 (Staphylococcus aureus [6]): 1.2 mg/kg
- MIC (Enterococcus faecalis): 0.125 µg/mL (≈ 0.363 µM)

SMILES: CC(=O)NC[C@H]1CN(c2ccc(-n3ncc(C#N)n3)c(F)c2)C(=O)O1
- MIC (Haemophilus influenzae): 2 µg/mL (≈ 5.81 µM)
- MIC (Moraxella catarrhalis): 2 µg/mL (≈ 5.81 µM)
- MIC [5]: 0.125 µg/mL (≈ 0.363 µM)
- ED50 (Staphylococcus aureus [6]): 1.9 mg/kg
- MIC (Enterococcus faecalis): 0.125 µg/mL (≈ 0.363 µM)

- MIC (Staphylococcus aureus [7]): 0.25 µg/mL
SMILES: C[C@@H](O)C(=O)N1CC=C(c2c(F)cc(N3C[C@H](COc4ccon4)OC3=O)cc2F)CC1

SMILES: O=C1O[C@@H](Cn2ccnn2)CN1c1ccc(N2CCN(S(=O)(=O)c3cccc(C(F)(F)F)c3)CC2)c(F)c1
- MIC (Staphylococcus aureus [8]): 0.5 µg/mL

SMILES: O=C1O[C@@H](Cn2ccnn2)CN1c1ccc(N2CCN(S(=O)(=O)c3ccc(Cl)cc3)CC2)c(F)c1
- MIC (Staphylococcus aureus [8]): 0.5 µg/mL

SMILES: O=C1O[C@@H](Cn2ccnn2)CN1c1ccc(N2CCN(S(=O)(=O)c3cccc(F)c3)CC2)c(F)c1
- MIC (Staphylococcus aureus [8]): 0.5 µg/mL

SMILES: Nc1cccc(S(=O)(=O)N2CCN(c3ccc(N4C[C@H](Cn5ccnn5)OC4=O)cc3F)CC2)c1
- MIC (Staphylococcus aureus [8]): 0.5 µg/mL

SMILES: CC(=O)NC[C@H]1CN(c2ccc(N3CCN(c4cc5c(cc4F)c(=O)c(C(=O)O)cn5C4CC4)CC3)c(F)c2)C(=O)O1
- MIC (Staphylococcus aureus [4]): 2 µg/mL (≈ 3.44 µM)
- MIC (Enterococcus faecium): 0.5 µg/mL (≈ 0.86 µM)

- MIC (Staphylococcus aureus [9]): > 64 µg/mL
SMILES: CC(=O)NC[C@H]1CN(c2ccc(-n3cc(C(=O)O)c(=O)c4cc(F)c(N5CCN(C)CC5)cc43)c(F)c2)C(=O)O1

SMILES: O=C([C@H](O)CO)N1CC=C(c2c(F)cc(N3C[C@H](COc4ccon4)OC3=O)cc2F)CC1
- MIC (Staphylococcus aureus [7]): 0.25 µg/mL
